Drawing on patent publication US11028090B2 (Dong Wha Pharm. Co., Ltd., priority 2017, dated 2021), this text covers IC50 for 24 molecules.

Structures can show the parent of a compound that is named as a salt. Where two headings read alike, the source gives them in different places.

The target of this assay is BRD4 (BD1+BD2) bromodomain (Homo sapiens (Human), UniProt O60885). Description: BRD4 binding inhibition (AlphaScreen, GST-BRD4 vs tetraacetylated histone H4 peptide). Here is the method:
A mixture comprising 100 nM GST-BRD4 (BD1+BD2) and 100 nM biotinylated acetyl-histone H4 (Lys5,8,12,16) peptide was prepared in assay buffer (50 mM HEPES pH 7.4; 25 mM NaCl; 0.05% Tween 20; 0.1% bovine serum albumin (BSA); 10 mM dithiothreitol (DTT)). After adding 6 μl of the mixture to the diluent, 6 μl of the pre-mixed AlphaLISA Glutathione Acceptor Beads and AlphaScreen Streptavidin Donor Beads (PerkinElmer, 10 μg/ml in assay buffer, respectively) was added thereto. The samples were incubated in the dark at room temperature for 30 minutes (shaking at 300 rpm). Then, the signals were measured with PerkinElmer Envision HTS Multilabel Reader using an alpha screen protocol of PerkinElmer. Each plate contained the negative control in which biotinylated acetyl-histone H4 peptide and GST-BRD4 (BD1+BD2) were replaced by assay buffer. In the case of using the software GraphPad Prism for calculation, the negative control point was input as a low standard value. The positive control (probe molecule l-BET762 containing protein/peptide mixture) proceeded to pipetting.

Where [1] appears, read: GST-BRD4 (BD1+BD2) / biotinylated acetyl-histone H4 (Lys5,8,12,16) peptide, read-out: IC50, BRD4 binding inhibition.
[2] abbreviates: GST-BRD4 (BD1+BD2) vs biotinylated acetyl-histone H4 peptide, AlphaScreen, read-out: BRD4 IC50.

As to `COc1ccc2c(c1)nc(NCCCCNC(=O)[C@@H](NC(=O)[C@H](C)O)C(C)C)c1nnc(C)n12` [Example 324, 2-(S)-(2-(S)-hydroxy-propionylamino)-N-[4-(7-methoxy-1-methyl-[1,2,4]triazolo[4,3-a]quinoxaline-4-ylamino)-butyl]-3-methyl-butyramide], the IC50 was at most 10 nM under setting [1] and 7 nM under setting [2].
Take `COc1ccc2c(c1)nc(NCCCCC(=O)NC(C)(C)C)c1nnc(C)n12` [Example 653, 5-(7-methoxy-1-methyl-[1,2,4]triazolo[4,3-a]quinoxaline-4-ylamino)-pentanoic acid-tert-butylamide]: the IC50 is at most 50 nM under setting [1] and 16 nM under setting [2].
Turning to `Cc1ccc2nc(NCCCCNC(=O)c3ccccc3)c3nnc(C)n3c2c1` [Example 45, N-[4-(1,8-dimethyl-[1,2,4]triazolo[4,3-a]quinoxaline-4-ylamino)-butyl]-benzamide], under setting [1], the half-inhibitory concentration (IC50) was at most 50 nM.
Turning to `COc1cc2nc(NCCCCC(=O)NC(C)(C)C)c3nnc(C)n3c2cc1OC` [Example 646], under setting [2], the IC50 turned out to be 56 nM.
As for `CC(=O)OCC(=O)NCCCCNc1nc2cc3c(cc2n2c(C)nnc12)OCCO3` [Example 184], the half-maximal inhibitory concentration (IC50) under setting [1] was at most 50 nM and the IC50 under setting [2] was 30 nM.
As for `COCCOc1ccc2c(c1)nc(NCCCCNC(=O)[C@@H](N)C(C)C)c1nnc(C)n12` (stereo in doubt) [Example 397, 2-amino-N-{4-[7-(2-methoxy-ethoxy)-1-methyl-[1,2,4]triazolo[4,3-a]quinoxaline-4-ylamino]-butyl}-3-methyl-butyramide], the IC50 reads like this: under setting [1], at most 50 nM; under setting [2], 29 nM.
Consider `COCCOc1ccc2c(c1)nc(NCCCCNC(=O)c1cccnc1)c1nnc(C)n12` [Example 417, N-{4-[7-(2-methoxy-ethoxy)-1-methyl-[1,2,4]triazolo[4,3-a]quinoxaline-4-ylamino]-butyl}-nicotinamide], for which the half-maximal inhibitory concentration (IC50) under setting [2] stood at 60 nM.
In the case of `Cc1nnc2c(NCCCCNC(=O)OC(C)(C)C)nc3ccc([N+](=O)[O-])cc3n12` [Example 541, [4-(1-methyl-8-nitro-[1,2,4]triazolo[4,3-a]quinoxaline-4-ylamino)-butyl]-carbamic acid-tert-butylester], the IC50 runs as follows: under setting [1], at most 50 nM; under setting [2], 37 nM.
With `Cc1nnc2c(NCCCCNC(=O)OC(C)(C)C)nc3cc(OC(C)C)ccc3n12` [Example 447, [4-(7-isopropoxy-1-methyl-[1,2,4]triazolo[4,3-a]quinoxaline-4-ylamino)-butyl]-carbamic acid-tert-butylester], the concentration for half-maximal inhibition (IC50) is at most 50 nM under setting [1] and 21 nM under setting [2].
For `Cc1nnc2c(NCCCCNC(=O)[C@H](O)C(C)C)nc3cc(F)c(F)cc3n12` [Example 38, N-[4-(7,8-difluoro-1-methyl-[1,2,4]triazolo[4,3-a]quinoxaline-4-ylamino)-butyl]-2-(R)-hydroxy-3-methyl-butyramide], under setting [2], the half-maximal inhibitory concentration (IC50) is 97 nM.
On the same count and under the same terms, the figure for `Cc1nnc2c(NCCCCN)nc3cc(N4CCOCC4)ccc3n12` [Example 498, N^1-(1-methyl-7-morpholine-4-yl-[1,2,4]triazolo[4,3-a]quinoxaline-4-yl)-butane-1,4-diamine dihydrochloride] is 98 nM.
As for `COc1cccc2c1nc(NCCCCN)c1nnc(C)n12` [Example 118, N^1-(6-methoxy-1-methyl-[1,2,4]triazolo[4,3-a]quinoxaline-4-yl)-butane-1,4-diamine dihydrochloride], the half-maximal inhibitory concentration (IC50) under setting [2] turned out to be 54 nM.
On to `Cc1nnc2c(NCCCCNC(=O)NC(C)(C)C)nc3ccc(F)cc3n12` [Example 52, 1-tert-butyl-3-[4-(8-fluoro-1-methyl-[1,2,4]triazolo[4,3-a]quinoxaline-4-ylamino)-butyl]-urea], for which the IC50 under setting [2] was 70 nM.
Turning to `COCCOc1ccc2c(c1)nc(NCCCCNC(=O)NC(C)(C)C)c1nnc(C)n12` [Example 424, 1-tert-butyl-3-{4-[7-(2-methoxy-ethoxy)-1-methyl-[1,2,4]triazolo[4,3-a]quinoxaline-4-ylamino]-butyl}-urea], the 50% inhibitory concentration (IC50) is at most 50 nM under setting [1] and 25 nM under setting [2].
Taken in the same sequence, the figures for `COCCOc1ccc2c(c1)nc(NCCCCNC(=O)C(C)(C)O)c1nnc(C)n12` [Example 385, 2-hydroxy-N-{4-(7-(2-methoxy-ethoxy)-1-methyl-[1,2,4]triazolo[4,3-a]quinoxaline-4-ylamino)-butyl}-2-methyl-propionamide] were at most 50 nM and 49 nM.
Turning to `CCC(C)CC(=O)NCCCCNc1nc2c(OC)cc(OC)c(OC)c2n2c(C)nnc12` (centres unmarked) [Example 489, 3-methyl-pentanoic acid-[4-(6,8,9-trimethoxy-1-methyl-[1,2,4]triazolo[4,3-a]quinoxaline-4-ylamino)-butyl]-amide], the IC50 was at most 50 nM under setting [1] and 30 nM under setting [2].
Consider `Cc1nnc2c(NCCCCNC(=O)OC(C)(C)C)nc3ccc(C(=O)Nc4ccccc4)cc3n12` [Example 538, [4-(1-methyl-8-phenylcarbamoyl-[1,2,4]triazolo[4,3-a]quinoxaline-4-ylamino)-butyl]-carbamic acid-tert-butylester], for which the IC50 under setting [2] is 69 nM.
Turning to `COCCOc1ccc2c(c1)nc(NCCCCNC(=O)C1CC1)c1nnc(C)n12` [Example 377, cyclopropane carboxylic acid-{4-[7-(2-methoxy-ethoxy)-1-methyl-[1,2,4]triazolo[4,3-a]quinoxaline-4-ylamino]-butyl}-amide], the IC50 is, setting by setting: under setting [1], at most 50 nM; under setting [2], 39 nM.
With `COc1cc2nc(NCCCCNC(=O)CC(C)C)c3nnc(C(C)C)n3c2cc1OC` [Example 603, N-[4-(1-isopropyl-7,8-dimethoxy-[1,2,4]triazolo[4,3-a]quinoxaline-4-ylamino)-butyl]-3-methyl-butyramide], the IC50 reads like this: under setting [1], at most 50 nM; under setting [2], 34 nM.
Consider `Cc1noc(C)c1-c1ccc2nc(NCCCCNC(=O)[C@H](O)C(C)C)c3nnc(C)n3c2c1` [Example 581, N-{4-[8-(3,5-dimethyl-isoxazol-4-yl)-1-methyl-[1,2,4]triazolo[4,3-a]quinoxaline-4-ylamino]-butyl}-2-(R)-hydroxy-3-methyl-butyramide], for which the IC50 by setting is: under setting [1], at most 50 nM; under setting [2], 24 nM.
On to `Cc1nnc2c(NCCCCNC(=O)[C@H](O)C(C)C)nc3cc(N4CCSCC4)ccc3n12` [Example 524, N-[4-(7-thiomorphonyl-4-yl-1-methyl-[1,2,4]triazolo[4,3-a]quinoxaline-4-ylamino)-butyl]-2-(R)-hydroxy-3-methyl-butyramide], for which the IC50 under setting [2] was 69 nM.
As to `COc1cc2nc(NCCCCNC(=O)SC(C)C)c3nnc(C)n3c2cc1OC` [Example 110, [4-(7,8-dimethoxy-1-methyl-[1,2,4]triazolo[4,3-a]quinoxaline-4-ylamino)-butyl]-thiocarbamic acid-S-isopropylester], the IC50 was at most 50 nM under setting [1] and 35 nM under setting [2].
For `Cc1nnc2c(NCCCCNC(=O)OC(C)(C)C)nc3cc(N)ccc3n12` [Example 243, [4-(7-amino-1-methyl-[1,2,4]triazolo[4,3-a]quinoxaline-4-ylamino)-butyl]-carbamic acid-tert-butylester], the concentration for half-maximal inhibition (IC50) under setting [2] came out at 65 nM.
In the case of `COc1c(C)ccc2c1nc(NCCCCNC(=O)OCC(C)C)c1nnc(C)n12` [Example 134, [4-(6-methoxy-1,7-dimethyl-[1,2,4]triazolo[4,3-a]quinoxaline-4-ylamino)-butyl]-carbamic acid isobutylester], the IC50 is, setting by setting: under setting [1], at most 50 nM; under setting [2], 19 nM.
